This is an account of results in patent publication US20240287172A1, “PROTEIN BINDERS TO IRHOM2 EPITOPES” (SCIRHOM GMBH, priority 2019, published 2024).

The test system of experiment [1] is LPS-induced release of endogenous TNFα from PBMCs from healthy donors. Description: ELISA-based TNFα release assay, LPS-induced, PBMCs from healthy donors. The settings on record: Homo sapiens, PBMC; LPS 50 ng/ml, 2 hours; recombinant murine antibodies and IgG at 1 μg/ml; Batimastat at 10 μM. It is filed as cell-based. The method, then:
(§1) In brief, on day 1, Nunc black MaxiSorp® 96-well plates (Thermo Fisher Scientific, USA) were coated overnight with 100 μl per well of mouse anti-human TNFα capture antibody (provided as part of the DuoSet ELISA kit) at 4 μg/ml TBS at 4° C. On day 2, the capture antibody solution was removed and MaxiSorp® plates were blocked with 300 μl per well of TBS, 1% BSA at room temperature for 3 hours. Meanwhile, 20,000 PBMC from healthy donors (STEMCELL Technologies, Canada) cells in 80 μl of normal growth medium were seeded in each well of Greiner CELLSTAR V-bottom 96-well plates (Thermo Fisher Scientific, USA) and pre-incubated with 20 μl per well of standard growth medium supplemented with Batimastat (BB94, Abcam, UK) at 50 μM as positive control (for a final concentration of 10 μM in the resulting 100 μl sample volume), mouse IgG antibody (Thermo Fisher Scientific, USA) at 5 μg/ml as isotype control (for a final concentration of 1 μg/ml in the resulting 100 μl sample volume) or antibodies of the invention at 5 μg/ml (for a final concentration of 1 μg/ml in the resulting 100 μl sample volume) at 37° C., 5% CO2 for 30 minutes. […] Using an infinite M1000 (Tecan Group, Switzerland) microplate reader, the fluorescence of each well was collected at an excitation wavelength of 435 nm and an emission wavelength of 555 nm.

Experiment [2] deals with LPS-induced release of endogenous TNFα from PBMCs from patients suffering from rheumatoid arthritis. Description: ELISA-based TNFα release assay, LPS-induced, PBMCs from RA-patients. It is filed as cell-based. The settings on record: PBMC; LPS 1 ng/ml, 1.5 hours; chimeric antibodies (CHO) and human IgG at 1 μg/ml; Batimastat at 10 μM. The method, then: as §1, with “from patients suffering from rheumatoid arthritis” for “from healthy donors”, “volume), human” for “volume), mouse”
In general terms: In an ELISA, binding on a coated surface is turned into a signal by an enzyme label.

In the case of `CNC(=O)[C@H](Cc1ccccc1)NC(=O)[C@H](CC(C)C)[C@H](CSc1cccs1)C(=O)NO` [Batimastat], the figures for the inhibition at 10 µM in experiment [1] and in experiment [2] were 99.6% and 99.9%, respectively.

The term inhibition denotes how much of the control response was suppressed.
